Experimental data from patent publication US20060040957A1, “BICYCLIC PYRIMIDINE MATRIX METALLOPROTEINASE INHIBITORS” (priority 2001, published 2006).
Where a name gives a salt, the structure may show the parent alone. Read-outs that look alike come from different tables or passages of the source.

Legend:
[1] = target: MMP-3CD (catalytic domain of stromelysin-1) (Homo sapiens, UniProt P08254); experiment: Thiopeptolide substrate hydrolysis assay, MMP-3CD; format: biochemical; conditions: MES buffer pH 6.0, read-out: IC50 (μM) Versus Certain MMPs: MMP-03 CD
Experimental: (§1) The invention compounds of Formula I have been evaluated in standard assays for their ability to inhibit the catalytic activity of various MMP enzymes.
(§2) Thiopeptolide substrates show virtually no decomposition or hydrolysis at or below neutral pH in the absence of a matrix metalloproteinase enzyme.
(§3) Several representative compounds have been evaluated for their ability to inhibit various matrix metalloproteinase enzymes.
It should be appreciated that the assay buffer used with MMP-3CD was 50 mM N-morpholinoethane sulfonate (−MES=) at pH 6.0 rather than the HEPES buffer at pH 7.0 described above.

[2] = target: MMP-14CD (catalytic domain of MMP-14) (Homo sapiens, UniProt P50281); experiment: Thiopeptolide substrate hydrolysis assay, MMP-14CD; format: biochemical; conditions: HEPES pH 7.0, 22° C., read-out: IC50 (μM) Versus Certain MMPs: MMP-14 CD
Text: as §1, §2, §3

[3] = target: T1, MMP-7FL (full length matrilysin) (Homo sapiens, UniProt P09237); experiment: Thiopeptolide substrate hydrolysis assay, MMP-7FL; format: biochemical; conditions: HEPES pH 7.0, 22° C., read-out: IC50 (μM) Versus Certain MMPs: MMP-07 FL
T1 sequence (P09237 95-267): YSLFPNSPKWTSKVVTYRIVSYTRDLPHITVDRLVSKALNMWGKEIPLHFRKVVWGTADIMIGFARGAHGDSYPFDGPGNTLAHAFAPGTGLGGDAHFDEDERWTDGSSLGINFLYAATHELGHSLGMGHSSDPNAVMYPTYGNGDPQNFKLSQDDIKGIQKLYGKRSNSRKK
Text: as §1, §2, §3

[4] = target: T2, MMP-1FL (full length interstitial collagenase) (Homo sapiens, UniProt P03956); experiment: Thiopeptolide substrate hydrolysis assay, MMP-1FL; format: biochemical; conditions: HEPES pH 7.0, 22° C., read-out: IC50 (μM) Versus Certain MMPs: MMP-01 FL
T2 sequence (P03956 100-469): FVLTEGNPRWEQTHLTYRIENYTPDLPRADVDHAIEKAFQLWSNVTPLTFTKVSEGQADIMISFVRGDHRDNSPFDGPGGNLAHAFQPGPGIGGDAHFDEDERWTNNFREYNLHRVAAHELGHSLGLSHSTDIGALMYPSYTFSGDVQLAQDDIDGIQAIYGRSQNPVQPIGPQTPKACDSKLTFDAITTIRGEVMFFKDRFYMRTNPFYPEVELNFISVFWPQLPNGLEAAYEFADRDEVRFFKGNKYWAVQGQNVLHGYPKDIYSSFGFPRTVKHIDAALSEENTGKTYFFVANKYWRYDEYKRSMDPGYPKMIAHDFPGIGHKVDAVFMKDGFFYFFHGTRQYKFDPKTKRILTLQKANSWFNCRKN
Text: as §1, §2, §3

[5] = target: T3, MMP-2FL (full length Gelatinase A) (Homo sapiens, UniProt P08253); experiment: Thiopeptolide substrate hydrolysis assay, MMP-2FL; format: biochemical; conditions: HEPES pH 7.0, 22° C., read-out: IC50 (μM) Versus Certain MMPs: MMP-02 FL
T3 sequence (P08253 110-660): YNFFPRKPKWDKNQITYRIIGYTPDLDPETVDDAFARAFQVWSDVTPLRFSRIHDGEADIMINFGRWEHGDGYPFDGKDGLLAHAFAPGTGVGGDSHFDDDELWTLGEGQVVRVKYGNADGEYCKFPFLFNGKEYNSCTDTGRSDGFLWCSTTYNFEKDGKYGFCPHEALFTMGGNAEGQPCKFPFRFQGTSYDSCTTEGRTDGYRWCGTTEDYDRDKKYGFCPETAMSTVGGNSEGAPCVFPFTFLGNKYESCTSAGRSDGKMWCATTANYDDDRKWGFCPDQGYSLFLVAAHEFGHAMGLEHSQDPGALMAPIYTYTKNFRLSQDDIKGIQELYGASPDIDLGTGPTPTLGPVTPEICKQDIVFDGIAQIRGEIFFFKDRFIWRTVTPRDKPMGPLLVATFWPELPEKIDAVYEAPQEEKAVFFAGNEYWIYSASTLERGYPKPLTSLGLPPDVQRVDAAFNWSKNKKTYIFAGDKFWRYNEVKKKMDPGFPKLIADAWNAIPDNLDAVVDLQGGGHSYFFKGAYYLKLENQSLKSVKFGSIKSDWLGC
Text: as §1, §2, §3

[6] = target: MMP-9FL (full length Gelatinase B) (Homo sapiens, UniProt P14780); experiment: Thiopeptolide substrate hydrolysis assay, MMP-9FL; format: biochemical; conditions: HEPES pH 7.0, 22° C., read-out: IC50 (μM) Versus Certain MMPs: MMP-09 FL
Text: as §1, §2, §3

[7] = target: MMP-13CD (catalytic domain of collagenase 3) (Homo sapiens, UniProt P45452); experiment: Thiopeptolide substrate hydrolysis assay, MMP-13CD; format: biochemical; conditions: thiopeptolide substrate, HEPES pH 7.0, 22° C.
Text: as §2

[8] = IC50 (μM) Versus Certain MMPs: MMP-13 CD
[9] = read-out: IC50 (μM) Versus Certain MMPs: MMP-13 CD

Sequence of MMP-3CD (catalytic domain of stromelysin-1) (P08254 100-272 limits assumed): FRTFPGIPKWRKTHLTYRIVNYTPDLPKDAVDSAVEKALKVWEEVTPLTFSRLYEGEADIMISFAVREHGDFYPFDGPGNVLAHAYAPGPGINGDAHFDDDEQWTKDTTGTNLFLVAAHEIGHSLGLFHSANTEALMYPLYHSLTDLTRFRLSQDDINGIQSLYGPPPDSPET
Sequence of MMP-9FL (full length Gelatinase B) (P14780 94-707, species assumed): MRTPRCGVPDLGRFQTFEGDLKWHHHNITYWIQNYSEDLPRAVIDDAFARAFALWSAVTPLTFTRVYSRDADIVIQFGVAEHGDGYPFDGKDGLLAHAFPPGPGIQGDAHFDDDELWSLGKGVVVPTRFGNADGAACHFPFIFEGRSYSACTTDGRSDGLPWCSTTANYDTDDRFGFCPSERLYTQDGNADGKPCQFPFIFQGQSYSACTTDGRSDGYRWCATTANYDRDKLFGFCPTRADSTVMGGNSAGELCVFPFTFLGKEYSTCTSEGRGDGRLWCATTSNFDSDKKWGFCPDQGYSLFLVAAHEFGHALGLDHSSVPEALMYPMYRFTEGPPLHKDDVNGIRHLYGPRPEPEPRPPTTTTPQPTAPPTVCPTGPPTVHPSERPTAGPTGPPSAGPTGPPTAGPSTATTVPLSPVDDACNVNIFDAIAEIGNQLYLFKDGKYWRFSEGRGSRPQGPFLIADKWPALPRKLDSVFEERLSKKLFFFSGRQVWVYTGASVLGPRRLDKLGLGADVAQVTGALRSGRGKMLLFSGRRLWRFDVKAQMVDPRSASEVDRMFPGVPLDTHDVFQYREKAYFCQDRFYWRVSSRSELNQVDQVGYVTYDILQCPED

| Compound | IC50 [1] [µM] | IC50 [2] [µM] | IC50 [3] [µM] | IC50 [4] [µM] | IC50 [5] [µM] | IC50 [6] [µM] | IC50 [7, 8] [µM] | IC50 [7, 9] [µM] | melting point [°C] |
| --- | --- | --- | --- | --- | --- | --- | --- | --- | --- |
| O=C(OCc1ccccc1)c1cn2c(=O)n(Cc3ccccc3)c(=O)cc2s1 [Example 1, 6-Benzyl-5,7-dioxo-6,7-dihydro-5H-thiazolo[3,2-c]pyrimidine-2-carboxylic acid benzyl ester] | 23 | > 30 | 96 | > 100 |  |  |  |  |  |
| Cc1c(=O)n(Cc2ccccc2)c(=O)n2cc(C(=O)OCc3ccccc3)sc12 [Example 2, 6-Benzyl-8-methyl-5,7-dioxo-6,7-dihydro-5H-thiazolo[3,2-c]pyrimidine-2-carboxylic acid benzyl ester] |  |  |  | > 100 |  |  |  |  |  |
| O=C(NCc1ccccc1)c1cn2c(=O)n(Cc3ccccc3)c(=O)cc2s1 [Example 4, 6-Benzyl-5,7-dioxo-6,7-dihydro-5H-thiazolo[3,2-c]pyrimidine-2-carboxylic acid benzylamide] | 27 | 47.5 | 65 | 81 | > 100 | 83.5 | 0.572 |  |  |
| O=C(CCc1ccccc1)c1cn2c(=O)n(Cc3ccccc3)c(=O)cc2s1 [Example 8, 6-Benzyl-2-(3-phenyl-propionyl)-thiazolo[3,2-c]pyrimidine-5,7-dione] | 3.2 | 8.8 | > 30 | > 100 | > 100 | > 100 | 6.6 |  |  |
| O=C(Nc1ccc(-c2ccccc2)cc1)c1cn2c(=O)n(Cc3ccccc3)c(=O)cc2s1 [Example 6, 6-Benzyl-5,7-dioxo-6,7-dihydro-5H-thiazolo[3,2-c]pyrimidine-2-carboxylic acid biphenyl-4-ylamide] | 3.5 | 7.3 | 9.2 | > 30 | > 30 | > 30 |  | 23 |  |
| O=C(OCc1ccncc1)C1Cn2c(cc(=O)n(Cc3ccccc3)c2=O)S1 (stereo not drawn) [Example 21, 6-Benzyl-5,7-dioxo-2,3,6,7-tetrahydro-5H-thiazolo[3,2-c]pyrimidine-2-carboxylic acid pyridin-4-ylmethyl ester hydrochloride] | > 100 | > 100 | > 100 | > 100 | > 100 | > 100 |  |  |  |
| COc1cc(CNC(=O)c2cn3c(=O)n(Cc4ccccc4)c(=O)c(C)c3s2)ccn1 [Example 37] | 10 | > 30 | > 30 | > 30 | > 30 | > 30 | 0.0175 |  |  |
| O=C(OCc1ccncc1)c1cn2c(=O)n(Cc3ccccc3)c(=O)cc2s1 [Example 3, 6-Benzyl-5,7-dioxo-6,7-dihydro-5H-thiazolo[3,2-c]pyrimidine-2-carboxylic acid pyridin-4-ylmethyl ester hydrochloride] | 11 | > 100 | > 100 | > 100 | > 100 | > 100 |  |  |  |
| COC(=O)c1ccc(Cn2c(=O)c(C)c3sc(C(=O)NCc4ccc(F)cc4)cn3c2=O)cc1OC.Cl [Example 69, 4-[2-(4-Fluoro-benzylcarbamoyl)-8-methyl-5,7-dioxo-7H-thiazolo[3,2-c]pyrimidin-6-ylmethyl]-2-methoxy-benzoic acid methyl ester] | 10 | > 30 | > 30 |  | > 30 | > 30 |  |  | 191 to 193 |
| O=c1cc2sc(C(O)CCc3ccccc3)cn2c(=O)n1Cc1ccccc1 (stereo not drawn) [Example 5, 6-Benzyl-2-(1-hydroxy-3-phenyl-propyl)-thiazolo[3,2-c]pyrimidine-5,7-dione] | > 100 | > 100 | > 100 | > 100 | > 100 | > 100 |  | 14.3 |  |
| Cc1c(C(=O)OCc2ccccc2)sc2cc(=O)n(Cc3ccccc3)c(=O)n12 [Example 19, 6-Benzyl-3-methyl-5,7-dioxo-6,7-dihydro-5H-thiazolo[3,2-c]pyrimidine-2-carboxylic acid benzyl ester] | > 100 | > 30 | 8.8 | > 100 | > 100 | > 30 | 21 |  |  |

More lines, main results first:

| IC50 [1] [µM] | IC50 [2] [µM] | IC50 [3] [µM] | IC50 [4] [µM] | IC50 [5] [µM] | IC50 [6] [µM] | IC50 [7, 8] [µM] | IC50 [7, 9] [µM] | Compound | melting point [°C] |
| --- | --- | --- | --- | --- | --- | --- | --- | --- | --- |
| 20.5 |  | 26 |  |  |  | 0.0208 |  | COc1cc(CNC(=O)c2cn3c(=O)n(Cc4ccccc4)c(=O)c(C)c3s2)ccn1 [Example 37a, hydrochloride] |  |
| > 30 | > 30 | > 30 | > 30 | > 30 | > 30 |  |  | COC(=O)c1nc(Cn2c(=O)c(C)c3sc(C(=O)NCc4ccc(F)cc4)cn3c2=O)ncc1OC [Example 78, 2-[2-(4-Fluoro-benzylcarbamoyl)-8-methyl-5,7-dioxo-7H-thiazolo[3,2-c]pyrimidin-6-ylmethyl]-5-methoxy-pyrimidine-4-carboxylic acid methyl ester] |  |
| 10 | > 100 | > 30 |  | > 30 | > 30 |  |  | Cc1c(=O)n(Cc2ccccc2)c(=O)n2cc(C(=O)NCc3ccc4nsnc4c3)sc12 [Example 42, 6-Benzyl-8-methyl-5,7-dioxo-6,7-dihydro-5H-thiazolo[3,2-c]pyrimidine-2-carboxylic acid(2,1,3-benzothiadiazol-5-ylmethyl)-amide] |  |
|  |  |  | > 100 |  |  |  |  | Cc1c(=O)n(Cc2ccc(S(C)(=O)=O)cc2)c(=O)n2cc(C(=O)NCc3ccncc3)sc12 [Example 81, 6-(4-Methanesulfonyl-benzyl)-8-methyl-5,7-dioxo-6,7-dihydro-5H-thiazolo[3,2-c]pyrimidine-2-carboxylic acid(pyridin-4-ylmethyl)-amide hydrochloride] |  |
|  |  |  | > 100 |  |  |  |  | Cc1c(=O)n(Cc2ccc(C(=O)O)cc2)c(=O)n2cc(C(=O)NCc3ccncc3)sc12 [Example 62, 4-{8-Methyl-5,7-dioxo-2-[(pyridin-4-ylmethyl)-carbamoyl]-7H-thiazolo[3,2-c]pyrimidin-6-ylmethyl}-benzoic acid trifluoro-acetate] |  |
